Earlier results in patent publication US20210023267A1, “POLYMER-PERMEATED GRAFTS AND METHODS OF MAKING AND USING THE SAME” (BIOAESTHETICS CORPORATION, priority 2018, published 2021).
In brackets after ≈: the same amount, converted by molar mass. Like-named read-outs stand apart in the source and are kept apart here.

Tested on: S. aureus

CN[C@H](CC(C)C)C(=O)N[C@H]1C(=O)N[C@@H](CC(N)=O)C(=O)N[C@H]2C(=O)N[C@H]3C(=O)N[C@H](C(=O)N[C@H](C(=O)O)c4cc(O)cc(O)c4-c4cc3ccc4O)[C@H](O)c3ccc(c(Cl)c3)Oc3cc2cc(c3O[C@@H]2O[C@H](CO)[C@@H](O)[C@H](O)[C@H]2O[C@H]2C[C@](C)(N)[C@H](O)[C@H](C)O2)Oc2ccc(cc2Cl)[C@H]1O [vancomycin]
minimum inhibitory concentration (S. aureus): 1 µg/mL (≈ 0.69 µM)
minimum inhibitory concentration (S. aureus strains with complete resistance to vancomycin): 16 µg/mL (≈ 11 µM)
